Laboratory results published in patent publication US20220387405A1, “METHODS OF TREATMENT WITH N-((R)-1-(3-CHLOROPYRIDIN-2-YL)-2,2,2-TRIFLUOROETHYL)-2-((S)-2,6-DIOXOPIPERIDIN-3-YL)-1-OXOISOINDOLINE-5-CARBOXAMIDE” (CELGENE CORPORATION, priority 2021, published 2022).

Tests used:
[1] = system: Normal T lymphocytes in BM samples; test: PharmaFlow test, normal T lymphocytes in AML patient BM samples; format: cell-based, human; settings: BM samples of AML patients; for Compound 1 all but 1 patient
[2] = system: leukemic cells from TP53 WT AML patients; test: PharmaFlow test (Vivia), cytotoxic effect on leukemic cells in AML patient BM samples; format: cell-based, human; settings: AML patient samples
[3] = system: human peripheral blood (PB) lymphocytes; test: In vitro mammalian cell micronucleus test; settings: 4 hours with and without S9, 24 hours without S9; compared with negative controls
Protocol: Compound 1 was tested in the in vitro mammalian cell micronucleus test in human peripheral blood (PB) lymphocytes in the presence and absence of a metabolic activation system, Aroclor-induced rat liver fraction (S9), for 4 hours, and in the absence of S9 for 24 hours. The highest concentration tested was 481 μg/mL. Dimethyl sulfoxide (DMSO) was used as the solvent. […] In addition, 2 lower concentrations with appropriate concentration and cytotoxicity spacing were chosen for micronucleus scoring in each regime.

Compound	cytotoxicity in T lymphocytes [1]	cytotoxicity in leukemic cells [2]	proportion of micronucleated binucleate cells (MBC) [3]
COc1cc(C(=O)O)ccc1NC(=O)[C@@H]1N[C@@H](CC(C)(C)C)[C@](C#N)(c2ccc(Cl)cc2F)[C@H]1c1cccc(Cl)c1F [RG7388, idasanutlin, reference compound]	pan-cytotoxicity	pan-cytotoxicity	–
COC(=O)Nc1nc2ccc(C(=O)c3cccs3)cc2[nH]1 [nocodazole, reference compound]	–	–	statistically significant increases
O=P1(N(CCCl)CCCl)NCCCO1 (stereo not shown) [cyclophosphamide monohydrate, reference compound]	–	–	statistically significant increases
